Measurements: patent US6113907A, “Pharmaceutical grade St. John's Wort” (priority 1997, dated 2000)
“And” between values parts separate entries of the source, which are not always exact repeats. Equal entries are not always repeated. Structures can show the parent of a compound that is named as a salt. Where two headings read alike, the source gives them in different places.

Key:
[1] = oil preparations, exposed to light; cited from earlier work
[2] = test system: bacteria, fungi; settings: hyperforin, adhyperforin: dilutions of 1:400 or 1:200; cited from earlier work
[3] = target: monoamine oxidase B; settings: reference compounds; read-out: inhibition of monoamine oxidase B IC50; cited from earlier work
[4] = target: T1, serotonin transporter (Rattus norvegicus, UniProt P31652); assay: serotonin transporter assay, [125I]-RTI-121, rat cerebral cortical membranes; assay type: binding
T1 construct: Cerebral cortical membranes derived from male Wistar rats; from tissue; host or cells: cerebral cortical membranes of male Wistar rats

[5] = test system: muscarinic receptor for the central nervous system; assay: muscarinic receptor for the central nervous system (M1 Central), [3H] QNB, rat cortical membranes; assay type: binding; settings: 10^-4; 100 µM
Experimental: Fourteen additional bioassays were preformed on either extracts, fractions or reference compounds for this botanical. To measure inhibition of [^3 H] PK11195 to the benzodiazepine receptor (BDZ) a partially purified receptor preparation was made from rat kidney membranes. The final radioactive ligand concentration was 1 nM and non-specific binding was measured using 200 nM cold PK11195. The substances, receptor and ligand were reacted in 50 mM Tris-HCL (pH 7.7) at 0-4° C. for 60 minutes. The reaction was terminated by rapid filtration of the samples through glass fiber filters. […] The inhibition of [^3 H] pinrenzepine to the muscarinic M1 receptor (M1) by the substances was measured using a partially purified receptor from bovine striatal membranes. The final hot ligand concentration was 1 nM and non-specific binding was determined in the presence of 100 nM atropine. […] The reactions were terminated by rapid vacuum filtration of the reaction mixture through glass fiber filters. […] To assay for biological activity for the muscarinic receptor for the central nervous system, receptor was partially purified from rat cortical membranes. […] Non-specific binding was determined in the presence of 100 nM atropine. […] Non-specific binding was determined using 1 mM NMDA. […] Non-specific binding was determined using 100 μM AMPA.

[6] = target: monoamine oxidase B; assay: MAO-B enzyme activity, rat liver mitochondrial fraction, [3H]dopamine; assay type: biochemical; settings: read-out: MAOB (concentration)
Experimental: MAO-B enzyme activity is assayed in a mitochondrial fraction isolated from rat liver by differential centrifugation. […] Following 20 minutes incubation at 37° C., the reaction is terminated by the addition of 5% HCl. The radioactivity of [^3 H]dopamine in an extraction was determined.

[7] = test system: adenosine receptor; assay: adenosine receptor non-selective (ADNS), [3H] NECA, bovine striatal membranes; assay type: binding; settings: 10^-4; 60 min, 100 µM
Experimental: To determine the inhibitory activity of the substances for the dopamine receptor (dp) the following assay was preformed. A partial receptor preparation was prepared from bovine striatal membranes using [^3 H] spiperone as the ligand at a final concentration of 0.3 nM. To determine non-specific binding cold spiperone was tested at 1 μM. The reactions were carried out in 50 mM Tris-HCl (pH 7.7) containing 120 mM NaCl, 5 mM KCl, 2 mM CaCl2 and 1 mM MgCl2 at 37° C. for 60 minutes. […] The inhibitory properties of the substances for binding of ligand to the adenosine receptor (ADNS) was measured using a partially purified receptor preparation made from bovine striatal membranes. The radioligand used was [^3 H] 5'-N-ethylcarboxyamidoadenosine (NECA) at a final ligand concentration of 4 nM. Non-specific binding was determined in the presence of 10 μM NECA. The reactions were carried out in 50 mM Tris-HCL (pH 7.7) for 60 minutes at 25° C. […] To measure the inhibitory activity of the substances for the opiate receptor (Opiate) receptor was partially purified from rat forebrains. [^3 H] naloxone at 1 nM as the ligand used. Non-specific binding was determined in the presence of 1 μM of naloxone. The assays were carried out in 50 mM Tris-HCl (pH 7.4) at 25° C. for 90 minutes. […] The neuronal nicotinic receptor (Nicotinic Neuronal) was assayed using receptors partially purified from rat cortical membranes. The radioligand used was [^3 H] N-methylcarbamylcholine iodide at a final ligand concentration of 5 nM. Non-specific binding was determined in the presence of 1 μM nicotine sulfate. The assay reactions were carried out in 50 mM Tris-HCl (pH 7.4) containing 120 mM NaCl, 5 mM KCl, 2 mM CaCl2, 1 mM MgCl2, and 3 μM atropine sulfate at 4° C. for 60 minutes. […] To determine how the substances inhibit the corticotropin releasing factor (CRF) partially purified receptor from rat cortical membranes was used as the receptor preparation. […] Tyr-° CRF at a final ligand concentration of 0.1 nM. Non-specific binding was determined in the presence of 1 μM Tyr-° CRF. The reactions were carried out in 50 mM HEPES containing 10 mM MgCl2, 2 mM EGTA, 0.12 TIU/ml aprotinin and 0.3% BSA at 25° C. for 120 minutes. The reaction is terminated by centrifugation in a Sorvall centrifuge for 15 minutes at 4° C.

[8] = target: T2, MAOA (Rattus norvegicus, UniProt P21396); assay: MAOA enzymatic activity, rat liver mitochondrial membranes, [14C] serotonin; assay type: biochemical; set-up: using rat liver mitochondrial membranes as a partially purified enzyme source; from tissue; host or cells: rat liver mitochondrial membranes
T2 sequence (P21396 1-526): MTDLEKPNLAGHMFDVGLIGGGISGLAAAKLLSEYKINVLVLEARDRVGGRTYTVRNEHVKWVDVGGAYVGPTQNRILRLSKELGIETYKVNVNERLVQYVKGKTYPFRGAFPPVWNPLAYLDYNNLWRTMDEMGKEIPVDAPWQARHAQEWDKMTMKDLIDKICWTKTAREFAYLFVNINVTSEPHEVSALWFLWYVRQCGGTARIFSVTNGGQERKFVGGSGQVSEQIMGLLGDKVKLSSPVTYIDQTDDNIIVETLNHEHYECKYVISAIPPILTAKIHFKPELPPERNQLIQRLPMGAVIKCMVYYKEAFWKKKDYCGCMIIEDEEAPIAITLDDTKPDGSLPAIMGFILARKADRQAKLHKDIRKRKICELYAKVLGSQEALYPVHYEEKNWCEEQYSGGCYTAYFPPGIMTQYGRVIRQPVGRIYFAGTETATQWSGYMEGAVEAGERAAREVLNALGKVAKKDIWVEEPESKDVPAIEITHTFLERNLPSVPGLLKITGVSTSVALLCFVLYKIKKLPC
Experimental: The inhibition of MAOA enzymatic activity (MAOA) was determined using rat liver mitochondrial membranes as a partially purified enzyme source. […] The reaction involves the conversion of the substrate to [^14 C] 5-hydroxyl indoleacetaldehyde+NH4^+. In brief, the enzyme is preincubated with the substances and the subtype specific blocker deprenyl (at 300 nM) for 60 minutes at 37° C. in 100 mM KPO4 (pH 7.2). Substrate is added and incubated for an additional 10 minutes. The reaction is terminated by the addition of 0.5 ml of 2M citric acid. […] Nitric oxide synthetase activity was measured using a binding assay (NOS). The receptors were made by partial purification of material from rat brain membranes. The radioligand used was [^3 H] L-N^G -Nitro-Arginine (NOARG) at a final concentration of 5 nM. Non-specific binding was determined using 100 μM of NOARG. The assay reactions were carried out in 50 mM Tris-HCl (pH 7.4) for 60 minutes at 25° C.

[9] = depressed outpatients; cited from earlier work
[10] = test system: β-adrenergic receptors; settings: rat frontal cortex, subchronic (250 mg/kg for 2 weeks; imipramine similar doses); cited from earlier work

T1 sequence (P31652 whole entry): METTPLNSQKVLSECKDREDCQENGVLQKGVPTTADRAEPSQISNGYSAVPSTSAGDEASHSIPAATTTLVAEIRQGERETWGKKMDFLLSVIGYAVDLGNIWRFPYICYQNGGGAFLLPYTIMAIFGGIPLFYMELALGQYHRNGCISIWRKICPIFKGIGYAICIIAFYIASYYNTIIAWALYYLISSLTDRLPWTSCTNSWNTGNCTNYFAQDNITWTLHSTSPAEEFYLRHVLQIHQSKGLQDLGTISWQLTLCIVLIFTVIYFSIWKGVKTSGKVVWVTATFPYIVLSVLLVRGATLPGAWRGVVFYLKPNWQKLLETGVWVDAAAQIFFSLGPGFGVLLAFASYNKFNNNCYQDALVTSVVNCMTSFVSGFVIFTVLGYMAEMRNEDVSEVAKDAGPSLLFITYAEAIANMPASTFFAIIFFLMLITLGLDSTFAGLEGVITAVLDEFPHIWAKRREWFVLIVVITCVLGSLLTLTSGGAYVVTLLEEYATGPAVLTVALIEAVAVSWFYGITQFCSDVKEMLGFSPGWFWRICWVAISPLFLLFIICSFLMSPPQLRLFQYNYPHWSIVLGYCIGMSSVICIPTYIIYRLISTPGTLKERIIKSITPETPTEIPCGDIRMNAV

CC(C)=CCCC1(C)C(CC=C(C)C)CC2(CC=C(C)C)C(=O)C(CC=C(C)C)=C(O)C1(C(=O)C(C)C)C2=O (centres unmarked) [Hyperforin, hyperforin]
degradation time [1]: 14 days
antibacterial / antifungal / antibiotic effect [2]: antibiotic effect greater than that of sulfonilamide

NCCNC(=O)c1cccc(I)c1 [N-(2-aminoethyl)-3-iodobenzamide hydrochloride]
IC50 [3]: 1.7 µM

O=c1c(O)c(-c2ccc(O)c(O)c2)oc2cc(O)cc(O)c12 [Quercetin, quercetin]
5-HT Reuptake (Table 8, words) [4]: Negative
M1 Central [5]: 27%
IC50 [6]: 2.4 µM
ADNS [7]: 45% and 27%
MAOA (Table 8, words) [8]: verified the MAOA activity
IC50 ([8]; read-out: MAOA (concentration)): 8.2 µM

CCCC/N=C(/c1cc(Cl)ccc1O)c1ccccc1Cl [fengabine]
antidepressant effects [9]: antidepressant effects

CN(C)CCCN1c2ccccc2CCc2ccccc21 [imipramine]
down-regulation of β-adrenergic receptors [10]: 25%
